Reference: ChEMBL document CHEMBL4368856, “Probing the hras-1Y i-motif with small molecules” (Medchemcomm, 2018)
Activity calls are given as the source filed them. The calls are words filed in the database; no cut-off is given here.

How the values were obtained:
[1] = Binding affinity to 5'-biotin-labelled HRAS-1 Y i-motif DNA (unknown origin) by surface plasmon resonance analysis
[2] = Binding affinity to 5'-AlexaFluor 647-labelled HRAS-1 Y i-motif DNA (unknown origin) by fluorescence titration method
[3] = Binding affinity to HRAS-1 Y i-motif DNA (unknown origin) in pH 6 D2O/DMSO assessed as chemical shift perturbation in Watson-Crick imino proton at 12.5 to 14 ppm up to 150 uM by NMR analysis
[4] = Binding affinity to HRAS-1 Y i-motif DNA (unknown origin) in pH 6 D2O/DMSO assessed as chemical shift perturbation at 7 to 12 ppm up to 150 uM by NMR analysis
[5] = Binding affinity to HRAS-1 Y i-motif DNA (unknown origin) in pH 6 D2O/DMSO assessed as chemical shift perturbation in i-motif imino proton at 15 to 16 ppm up to 150 uM by NMR analysis
[6] = Binding affinity to HRAS-1 Y i-motif DNA (unknown origin) in pH 6 D2O/DMSO at 100 uM by 1H-WaterLOGSY NMR analysis
[7] = Binding affinity to HRAS-1 Y i-motif DNA (unknown origin) in pH 8 D2O/DMSO at 100 uM by 1H-WaterLOGSY NMR analysis
[8] = Binding affinity to HRAS-1 Y i-motif DNA (unknown origin) in pH 6 tris-acetate buffer assessed as confirmational change at 10 to 50 uM by circular dichroism analysis
[9] = Binding affinity to HRAS-1 Y i-motif DNA (unknown origin) assessed as change in melting temperature by thermal denaturation study
[10] = Binding affinity to 5'-AlexaFluor 647-labelled HRAS-1 Y i-motif DNA (unknown origin) after 1 hr by fluorescence assay
[11] = Aggregation property of the compound in D2O/DMSO at 100 uM by 1H-WaterLOGSY NMR analysis; format: physicochemical
[12] = Binding affinity to 5'-ATTO/3'-TAMRA labelled HRAS-1 Y i-motif DNA (unknown origin) up to 252 uM after 10 mins by FRET assay
[13] = Binding affinity to HRAS-1 Y i-motif DNA (unknown origin) in D2O/DMSO at 100 uM by 1H-WaterLOGSY NMR analysis

Structure (SMILES) | Kd [1] | Kd [2] | further results
CC(c1ccc(-c2cc(N3CCCC3)nc(N)n2)cc1)N(C)C (stereo not given) | > 300 µM | 106 µM | 
COc1ccc(CCN(C)C2CCCN(c3cc(C)nc(N)n3)C2)cc1OC (stereo not given) | 11.6 µM | 16 µM | 
COc1cc(-c2ccc(C(C)N3CCCC3)cc2)nc(N)n1 (stereo not given) | > 300 µM | > 209 µM | 
COc1ccc(CCN(C)C2CCCN(c3ccnc(N)n3)C2)cc1OC (stereo not given) | 5.9 µM | 35.6 µM | Activity [3]: Active; Activity [4]: Active; Activity [5]: inactive; Activity [6]: Active; Activity [7]: inactive; Activity [8]: inactive; Activity [9]: inactive; Activity [10]: Active
COc1ccc(CCN(C)C2CCCN(c3ccnc(N(C)C)n3)C2)cc1OC (stereo not given) | > 300 µM | 50.4 µM | 
COc1cc(-c2ccc(C(C)N3CCCCC3)cc2)nc(N)n1 (stereo not given) | 51 µM | 254 µM | 

Continued, in another order:

Kd [1] | Kd [2] | Structure (SMILES) | further results
149 µM | 90.7 µM | CC(c1ccc(-c2cc(N3CCOCC3)nc(N)n2)cc1)C(C)N1CCCC1 (stereo not given) | 
0.3 µM | 3 µM | COc1ccc(CCN(C)C2CCCN(c3ccnc(C)n3)C2)cc1OC (stereo not given) | 
> 300 µM | > 209 µM | Nc1nccc(N2CCCC(CCc3ccccc3)C2)n1 (stereo not given) | 
243 µM | > 209 µM | NCCn1cc(C(=O)NC2CCCN(Cc3cccc(O)c3)C2)nn1 (stereo not given) | 
7.4 µM | 1.6 µM | CC(c1ccc(-c2cc(NCCO)nc(N)n2)cc1)N1CCCC1 (stereo not given) | Activity [11]: Not Active; Activity [3]: inactive; Activity [4]: inactive; Activity [5]: Active; Activity [6]: Active; Activity [7]: inactive; Activity [12]: inactive; Activity [8]: Active; Activity [9]: inactive; Activity [13]: Active; Activity [10]: Active
78 µM | 30.8 µM | COc1ccc(CCCNc2nc(N)nc3c2CCNCC3)cc1OC | 
0.2 µM | 0.6 µM | COc1cc(N2CCCC(N(C)CCc3ccc(OC)c(OC)c3)C2)ncn1 (stereo not given) | 
